Assay results reported in publication PMC9293909 (Nature Communications, 2022).
Read-outs that look alike come from different tables or passages of the source.

Assays:
Type in all cases: cell-based
hA1R:Goa = biological target: T1, hA1R:Goa (Homo sapiens, UniProt P30542); experiment: cAMP inhibition in PTX-treated CHO-K1-hA1R cells with PTX-insensitive Goa (incl. Schild analysis, bias); conditions: for Emax: inhibition of forskolin-stimulated cAMP; for Bias factor (Δ(τ/KA)) Goa: relative to adenosine, operational model
T1 construct: host or cells: CHO-K1-hA1R (made in-house), PTX-treated
T1 sequence (P30542 1-326): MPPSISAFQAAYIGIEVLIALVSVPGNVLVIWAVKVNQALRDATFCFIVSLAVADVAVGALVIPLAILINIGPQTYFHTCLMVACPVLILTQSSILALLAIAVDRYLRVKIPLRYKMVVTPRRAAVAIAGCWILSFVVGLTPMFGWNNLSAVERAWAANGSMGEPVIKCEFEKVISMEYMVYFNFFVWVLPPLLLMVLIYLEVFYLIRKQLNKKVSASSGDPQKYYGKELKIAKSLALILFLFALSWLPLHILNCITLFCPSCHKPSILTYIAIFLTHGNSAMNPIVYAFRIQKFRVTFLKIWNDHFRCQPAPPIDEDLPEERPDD
Procedure: Cells were then incubated for 24 h before addition of 100 ng/ml PTX, to inhibit activity of endogenous Gαi/o, and then incubated for a further 16-18 h. Transfected cells were then assayed as per cAMP inhibition experiments, but co-stimulated with agonist and 100 nM forskolin.
Statistical significance was tested as indicated in the text using paired or unpaired two-tailed t-tests or one-way or two-way ANOVAs with repeated measures (RM) as appropriate. Bonferroni corrections for multiple comparisons were performed. All in vitro cell signalling assay data was analysed using Prism 8.4 (Graphpad software, San Diego, CA), with all concentration-response curves being fitted using a 3 parameter logistic equation to calculate response range and IC50. All cAMP data was normalised to a forskolin concentration-response curve ran in parallel to each assay.

hA3R = biological target: T2, hA3R (Homo sapiens, UniProt P0DMS8); experiment: cAMP inhibition at hA3R; conditions: for Range hA3R: range of response as percentage of response to 10 μM forskolin
T2 construct: expressed in transfected cells; host or cells: CHO-K1
T2 sequence (P0DMS8 1-318): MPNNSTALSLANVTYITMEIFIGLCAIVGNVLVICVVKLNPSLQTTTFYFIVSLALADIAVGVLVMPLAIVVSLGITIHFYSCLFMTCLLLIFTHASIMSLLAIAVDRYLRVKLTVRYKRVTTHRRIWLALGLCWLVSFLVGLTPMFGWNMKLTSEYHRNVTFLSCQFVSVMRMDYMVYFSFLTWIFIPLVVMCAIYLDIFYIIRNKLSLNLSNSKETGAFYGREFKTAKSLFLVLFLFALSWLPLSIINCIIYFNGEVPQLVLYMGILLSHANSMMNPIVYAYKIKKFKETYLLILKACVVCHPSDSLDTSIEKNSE
Procedure: CHO cell lines expressing ARs of interest (including mutants of the hA1R) were routinely cultured in Ham’s F-12 nutrient mix supplemented with 10% foetal bovine serum (FBS), at 37 °C with 5% CO2, in a humidified atmosphere.

rA2AR = biological target: T3, rA2AR (Rattus norvegicus, UniProt P30543); experiment: cAMP accumulation in CHO-K1-rA2AR cells
T3 construct: expressed in transfected cells
T3 sequence (P30543 whole entry): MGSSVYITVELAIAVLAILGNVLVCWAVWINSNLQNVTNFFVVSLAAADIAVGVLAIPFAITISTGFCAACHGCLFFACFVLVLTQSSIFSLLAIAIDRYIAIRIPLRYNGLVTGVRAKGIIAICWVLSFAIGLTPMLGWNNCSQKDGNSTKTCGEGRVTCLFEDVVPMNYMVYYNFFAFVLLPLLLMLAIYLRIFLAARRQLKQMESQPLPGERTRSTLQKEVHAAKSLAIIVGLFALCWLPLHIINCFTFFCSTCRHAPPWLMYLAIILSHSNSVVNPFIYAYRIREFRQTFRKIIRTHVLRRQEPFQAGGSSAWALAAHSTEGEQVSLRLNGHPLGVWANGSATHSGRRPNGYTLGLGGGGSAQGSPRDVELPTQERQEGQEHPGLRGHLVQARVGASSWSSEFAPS

[1] = biological target: T4, hA1R K294^8.49 alanine mutant (Homo sapiens, UniProt P30542, K294A); experiment: cAMP inhibition, Flp-In-CHO hA1R K294A; conditions: Fig4j; read-out: cAMP inhibition potency, 294A, Average (converted)
T4 construct: expressed in transfected cells
T4 sequence (P30542 whole entry K294A): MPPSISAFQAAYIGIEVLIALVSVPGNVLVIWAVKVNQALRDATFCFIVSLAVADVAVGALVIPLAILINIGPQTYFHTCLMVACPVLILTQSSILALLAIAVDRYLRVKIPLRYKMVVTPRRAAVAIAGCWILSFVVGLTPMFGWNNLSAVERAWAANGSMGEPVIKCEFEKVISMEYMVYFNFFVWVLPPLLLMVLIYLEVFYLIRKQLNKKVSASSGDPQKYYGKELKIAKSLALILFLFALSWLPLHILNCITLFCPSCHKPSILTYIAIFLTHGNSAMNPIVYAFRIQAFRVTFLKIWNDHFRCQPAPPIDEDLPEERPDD
From the text: Cell lines were maintained using standard subculturing routines as guided by the European Collection of Cell Culture (ECACC) and checked annually for mycoplasma infection using an EZ-PCR mycoplasma test kit from Biological Industries (Kibbutz Beit-Haemek, Israel). To investigate the signalling properties of the rat A3R (rA3R) and mutants of the human A1R (hA1R), stable cell lines were generated using Flp-In-CHO cells (ThermoFisher - R75807). Untagged hA1R from sigNanoLuciferase (Nluc)-A1R in pcDNA3.1+ and untagged rA3R from sigNluc-A3R in pcDNA3.1 + (both gifted by Dr Steve Briddon (University of Nottingham)) were cloned into the pcDNA5/FRT expression vector (Thermo Fisher Scientific). Mutations within the hA1R were made using the QuikChange Lightening Site-Directed Mutagenesis Kit (Agilent Technologies) in accordance with the manufacturer’s instructions. Constructs for generating Goa/b interfering and scrambled peptides were generated by PCR and cloned into the BamHI/HindIII site of pcDNA3.1- as described in Gilchrist et al.[60],. Prior to the initiator codon a Kozak sequence was included for enhanced translation. The peptide sequences used were: for Goa […], for Gob […], and for the scrambled peptide […] was used. Constructs were sequenced to confirm fidelity. […]

EC50 (hA1R:Goa)	IC50 (hA3R; half-maximal response, cAMP inhibition, read-out: pIC50 hA3R (converted))	IC50 [1]	EC50 (rA2AR; half-maximal response, cAMP, read-out: pEC50 rA2AR (converted))	Range rA2AR (rA2AR; range of response as percentage of response to 10 μM forskolin)	Compound	Emax (hA1R:Goa)	Bias factor (Δ(τ/KA)) Goa (hA1R:Goa)	pIC50 hA3R (hA3R; half-maximal response, cAMP inhibition)	Range hA3R (hA3R)	EC50 (rA2AR)	Range rA2AR (rA2AR)
					OC[C@H]1O[C@@H](n2cnc3c(NC4CCCC4)ncnc32)[C@H](O)[C@@H]1O [CPA, N^6-Cyclopentyladenosine]	-13.7%	0.6126	N.R.	N.R.	2820 nM	39.45 ± 3.47%
339 nM	24.5 nM	4.57 nM	2040 nM	48.61 ± 6.42%	OC[C@H]1O[C@@H](n2cnc3c(N[C@@H]4CCC[C@H]4O)ncnc32)[C@H](O)[C@@H]1O [HOCPA, (2 R,3 R,4 S,5 R)−2-(6-{[(1 R,2 R)−2-hydroxycyclopentyl]amino}−9H-purin-9-yl)−5-(hydroxymethyl)oxolane-3,4-diol]	-29.8%	3.228		45.0 ± 2.1%		
